Molecules are shown by their SMILES. ± gives the standard deviation of the averaged measurements.

A short description of the series: TIMS collisional cross section (CCS, N2) of the lipid ion; higher = larger ion cross section. Conditions: ionization mode: positive, one isomer drawn.

Consider `CCCCC/C=C\C/C=C\C/C=C\C/C=C\CCCCCC(=O)O[C@H](COC(=O)CCCCCCC/C=C\CCCCC)COP(=O)([O-])OCC[N+](C)(C)C` [PC 15:1_22:4] (ion (formula + adduct): [C45H80NO8P+H] 1+), for which the “TIMS collisional cross section” value (sample type: HeLa) turned out to be 290.2 Å². Regarding `CC/C=C\C/C=C\C/C=C\C/C=C\C/C=C\C/C=C\CCC(=O)O[C@H](COC(=O)CCCCCCC/C=C\CCCCC)COP(=O)([O-])OCC[N+](C)(C)C` [PC 15:1_22:6] (ion (formula + adduct): [C45H76NO8P+H] 1+), the “TIMS collisional cross section” value (sample type: plasma) stood at 289.8 Å². In the case of `CCCCCC/C=C\CCCCCCCC(=O)O[C@H](COC(=O)CCCCCCCCCCCCCCC)COP(=O)([O-])OCC[N+](C)(C)C` [PC 16:0@_16:1] (ion (formula + adduct): [C40H78NO8P+H] 1+), the “TIMS collisional cross section” value reads like this: (sample type: HeLa) 281.7 Å²; (sample type: plasma) 282.2 Å².

With `CCCCCCCC/C=C\CCCCCCCC(=O)O[C@H](COC(=O)CCCCCCCCCCCCCCC)COP(=O)([O-])OCC[N+](C)(C)C` [PC 16:0@_18:1] (ion (formula + adduct): [C42H82NO8P+H] 1+), the “TIMS collisional cross section” value runs as follows: (sample type: HeLa) 289.15 ± 0.49 Å²; (sample type: Liver) 287.6 Å²; (sample type: plasma) 288.2 Å². Turning to `CCCCC/C=C\C=C\CCCCCCCCC(=O)O[C@H](COC(=O)CCCCCCCCCCCCCCC)COP(=O)([O-])OCC[N+](C)(C)C` [PC 16:0@_18:2] (ion (formula + adduct): [C42H80NO8P+H] 1+), the “TIMS collisional cross section” value is, setting by setting: (sample type: Liver) 283.5 Å²; (sample type: plasma) 284.9 Å².

Regarding `CCCCCCCC/C=C\C/C=C\C/C=C\CCCC(=O)O[C@H](COC(=O)CCCCCCCCCCCCCCC)COP(=O)([O-])OCC[N+](C)(C)C` [PC 16:0@_20:3] (ion (formula + adduct): [C44H82NO8P+H] 1+), the “TIMS collisional cross section” value (sample type: Liver) is on record as 289.8 Å². For the compound `CC/C=C\C/C=C\C/C=C\C/C=C\C/C=C\CCCC(=O)O[C@H](COC(=O)CCCCCCCCCCCCCCC)COP(=O)([O-])OCC[N+](C)(C)C` [PC 16:0@_20:5] (ion (formula + adduct): [C44H78NO8P+H] 1+), where the note is “sample type: plasma”, the “TIMS collisional cross section” value is listed as 290.6 Å². On to `CCCCC/C=C\C/C=C\C/C=C\C/C=C\CCCCCC(=O)O[C@H](COC(=O)CCCCCCCCCCCCCCC)COP(=O)([O-])OCC[N+](C)(C)C` [PC 16:0@_22:4] (ion (formula + adduct): [C46H84NO8P+H] 1+), for which the “TIMS collisional cross section” value (sample type: HeLa) came out at 294.9 Å². `CCCCC/C=C\C/C=C\C/C=C\C/C=C\C/C=C\CCC(=O)O[C@H](COC(=O)CCCCCCCCCCCCCCC)COP(=O)([O-])OCC[N+](C)(C)C` [PC 16:0@_22:5] (ion (formula + adduct): [C46H82NO8P+H] 1+): the “TIMS collisional cross section” value (sample type: Liver) amounted to 293.8 Å².

On to `CCCCCCCCCCCCCCCC(=O)OC[C@H](COP(=O)([O-])OCC[N+](C)(C)C)OC(=O)CCCCCCCCCCCCCCC` [PC 16:0_16:0] (ion (formula + adduct): [C40H80NO8P+H] 1+), for which the “TIMS collisional cross section” value is, setting by setting: (sample type: HeLa) 286.1 Å²; (sample type: Liver) 285.5 Å²; (sample type: plasma) 285.7 ± 0.42 Å². With `CCCCCC/C=C\CCCCCCCC(=O)O[C@H](COC(=O)CCCCCCCCCCCCCCC)COP(=O)([O-])OCC[N+](C)(C)C` [PC 16:0_16:1@] (ion (formula + adduct): [C40H78NO8P+H] 1+), the “TIMS collisional cross section” value (sample type: HeLa) was 282 Å². On to `CCCCCC/C=C\CCCCCCCC(=O)O[C@H](COC(=O)CCCCCCCCCCCCCCC)COP(=O)([O-])OCC[N+](C)(C)C` [PC 16:0_16:1] (ion (formula + adduct): [C40H78NO8P+H] 1+), for which the “TIMS collisional cross section” value runs as follows: (sample type: HeLa) 282.63 ± 1.3 Å²; (sample type: Liver) 282.3 Å²; (sample type: plasma) 282.3 Å². `CCCCCCC/C=C\CCCCCCCC(=O)O[C@H](COC(=O)CCCCCCCCCCCCCCC)COP(=O)([O-])OCC[N+](C)(C)C` [PC 16:0_17:1] (ion (formula + adduct): [C41H80NO8P+H] 1+): the “TIMS collisional cross section” value (sample type: HeLa) turned out to be 285.8 Å². Regarding `CCCCCCCCCCCCCCCCCC(=O)O[C@H](COC(=O)CCCCCCCCCCCCCCC)COP(=O)([O-])OCC[N+](C)(C)C` [PC 16:0_18:0] (ion (formula + adduct): [C42H84NO8P+H] 1+), under “sample type: Liver”, the “TIMS collisional cross section” value is 291.4 Å². As to `CCCCCCCC/C=C\CCCCCCCC(=O)O[C@H](COC(=O)CCCCCCCCCCCCCCC)COP(=O)([O-])OCC[N+](C)(C)C` [PC 16:0_18:1] (ion (formula + adduct): [C42H82NO8P+H] 1+), the “TIMS collisional cross section” value (sample type: HeLa) amounted to 288.37 ± 0.9 Å² and the “TIMS collisional cross section” value (sample type: plasma) was found to be 287.7 Å². On to `CCCCCCCC/C=C\CCCCCCCC(=O)O[C@H](COC(=O)CCCCCCCCCCCCCCC)COP(=O)([O-])OCC[N+](C)(C)C` [PC 16:0_18:1] (ion (formula + adduct): [C42H82NO8P+Na] 1+), for which the “TIMS collisional cross section” value (sample type: HeLa) is given as 288.7 Å². As for `CCCCC/C=C\C=C\CCCCCCCCC(=O)O[C@H](COC(=O)CCCCCCCCCCCCCCC)COP(=O)([O-])OCC[N+](C)(C)C` [PC 16:0_18:2] (ion (formula + adduct): [C42H80NO8P+H] 1+), the “TIMS collisional cross section” value came to 286.3 Å² (sample type: Liver) and 282.45 ± 2.8 Å² (sample type: plasma). In the same order, the values of `CCCCC/C=C\C/C=C\C/C=C\CCCCC(=O)O[C@H](COC(=O)CCCCCCCCCCCCCCC)COP(=O)([O-])OCC[N+](C)(C)C` [PC 16:0_18:3] (ion (formula + adduct): [C42H78NO8P+H] 1+) are 282 Å² and 282 Å². On to `CCCCCCCC/C=C\CCCCCCCCCC(=O)O[C@H](COC(=O)CCCCCCCCCCCCCCC)COP(=O)([O-])OCC[N+](C)(C)C` [PC 16:0_20:1@] (ion (formula + adduct): [C44H86NO8P+H] 1+), for which the “TIMS collisional cross section” value (sample type: Liver) is reported as 295.2 Å². Consider `CCCCCCCC/C=C\C/C=C\C/C=C\CCCC(=O)O[C@H](COC(=O)CCCCCCCCCCCCCCC)COP(=O)([O-])OCC[N+](C)(C)C` [PC 16:0_20:3] (ion (formula + adduct): [C44H82NO8P+H] 1+), for which the “TIMS collisional cross section” value (sample type: plasma) was 290.5 Å². For `CC/C=C\C/C=C\C/C=C\C/C=C\C/C=C\CCCC(=O)O[C@H](COC(=O)CCCCCCCCCCCCCCC)COP(=O)([O-])OCC[N+](C)(C)C` [PC 16:0_20:5@] (ion (formula + adduct): [C44H78NO8P+H] 1+), the “TIMS collisional cross section” value (sample type: HeLa) was 286.9 Å². For the compound `CC/C=C\C/C=C\C/C=C\C/C=C\C/C=C\CCCC(=O)O[C@H](COC(=O)CCCCCCCCCCCCCCC)COP(=O)([O-])OCC[N+](C)(C)C` [PC 16:0_20:5] (ion (formula + adduct): [C44H78NO8P+H] 1+), the “TIMS collisional cross section” value (sample type: Liver) amounted to 285.7 Å². Still for that read-out and setting: next, `CCCCC/C=C\C/C=C\C/C=C\C/C=C\C/C=C\CCC(=O)O[C@H](COC(=O)CCCCCCCCCCCCCCC)COP(=O)([O-])OCC[N+](C)(C)C` [PC 16:0_22:5@] (ion (formula + adduct): [C46H82NO8P+H] 1+): 292.7 Å². Regarding `CCCCC/C=C\C/C=C\C/C=C\C/C=C\C/C=C\CCC(=O)O[C@H](COC(=O)CCCCCCCCCCCCCCC)COP(=O)([O-])OCC[N+](C)(C)C` [PC 16:0_22:5] (ion (formula + adduct): [C46H82NO8P+H] 1+), where the note is “sample type: plasma”, the “TIMS collisional cross section” value was found to be 293.3 Å². Turning to `CC/C=C/C/C=C/C/C=C/C/C=C/C/C=C/C/C=C/CCC(=O)O[C@H](COC(=O)CCCCCCCCCCCCCCC)COP(=O)([O-])OCC[N+](C)(C)C` [PC 16:0_22:6] (ion (formula + adduct): [C46H80NO8P+H] 1+), the “TIMS collisional cross section” value is, setting by setting: (sample type: HeLa) 291.8 Å²; (sample type: plasma) 292 Å². With `CCCCC/C=C\C/C=C\C/C=C\CCCCC(=O)O[C@H](COC(=O)CCCCCCC/C=C\CCCCCC)COP(=O)([O-])OCC[N+](C)(C)C` [PC 16:1@_18:3] (ion (formula + adduct): [C42H76NO8P+H] 1+), the “TIMS collisional cross section” value (sample type: HeLa) is recorded as 279.2 Å² and the “TIMS collisional cross section” value (sample type: plasma) came to 280.6 Å². In the case of `CCCCC/C=C\C/C=C\C/C=C\C/C=C\CCCC(=O)O[C@H](COC(=O)CCCCCCC/C=C\CCCCCC)COP(=O)([O-])OCC[N+](C)(C)C` [PC 16:1@_20:4] (ion (formula + adduct): [C44H78NO8P+H] 1+), the “TIMS collisional cross section” value (sample type: plasma) is on record as 285.8 Å². Consider `CC/C=C\C/C=C\C/C=C\C/C=C\C/C=C\CCCC(=O)O[C@H](COC(=O)CCCCCCC/C=C\CCCCCC)COP(=O)([O-])OCC[N+](C)(C)C` [PC 16:1@_20:5] (ion (formula + adduct): [C44H76NO8P+H] 1+), for which, for the setting “sample type: Liver”, the “TIMS collisional cross section” value was found to be 282.8 Å².

As to `CCCCCC/C=C\CCCCCCCC(=O)OC[C@H](COP(=O)([O-])OCC[N+](C)(C)C)OC(=O)CCCCCCC/C=C\CCCCCCC` [PC 16:1_17:1] (ion (formula + adduct): [C41H78NO8P+H] 1+), the “TIMS collisional cross section” value (sample type: HeLa) stood at 281.9 Å².

As to `CCCCCCCC/C=C\CCCCCCCC(=O)O[C@H](COC(=O)/C=C\CCCCCCCCCCCCC)COP(=O)([O-])OCC[N+](C)(C)C` [PC 16:1_18:1] (ion (formula + adduct): [C42H80NO8P+H] 1+), the “TIMS collisional cross section” value (sample type: HeLa) is recorded as 286.6 Å². Still for that read-out and setting: next, `CCCCC/C=C\C/C=C\CCCCCCCC(=O)O[C@H](COC(=O)CCCCCCC/C=C\CCCCCC)COP(=O)([O-])OCC[N+](C)(C)C` [PC 16:1_18:2@] (ion (formula + adduct): [C42H78NO8P+H] 1+): 281 Å².

On to `CCCCC/C=C\C/C=C\CCCCCCCC(=O)O[C@H](COC(=O)CCCCCCC/C=C\CCCCCC)COP(=O)([O-])OCC[N+](C)(C)C` [PC 16:1_18:2] (ion (formula + adduct): [C42H78NO8P+H] 1+), for which the “TIMS collisional cross section” value (sample type: HeLa) is 282.6 Å², the “TIMS collisional cross section” value (sample type: Liver) came out at 282.8 Å² and the “TIMS collisional cross section” value (sample type: plasma) was determined as 282.6 Å².

These data come from the supplement of paper PMC6965134.
